Test results from article PMC5196007 (Journal of pharmaceutical and biomedical analysis, 2016).
Read-outs that look alike come from different tables or passages of the source.

Experiments:
[1] = Stability of analytes in whole blood samples; assay type: in vitro ADME, rat; details: n = 6
[2] = tested on: butyrylcholinesterase (BChE) and liver carboxyesterase-2 (CE-2); details: in humans; cited from earlier work
[3] = Pharmacokinetic study with co-administration of cocaine and alcohol in rats; assay type: in vivo, Male Sprague–Darley rats; details: 60 mg/kg cocaine IP, 30 min after 1 g/kg alcohol or saline IP, both groups
CE-1 = details: with alcohol co-administration, cited from earlier work
[4] = Bench top (4 hours, room temperature), high concentration 190–320 ng/ml (1 µM)
[5] = Bench top (4 hours, room temperature), low concentration 1.9–3.2 ng/ml (0.01 µM)
[6] = Bench top (4 hours, room temperature), medium concentration 95–160 ng/ml (0.5 µM)
[7] = Freeze-thaw (4 cycles), high concentration 190–320 ng/ml (1 µM)
[8] = Freeze-thaw (4 cycles), low concentration 1.9–3.2 ng/ml (0.01 µM)
[9] = Freeze-thaw (4 cycles), medium concentration 95–160 ng/ml (0.5 µM)
[10] = Long-term (−70°C, 4 months), high concentration 190–320 ng/ml (1 µM)
[11] = Long-term (−70°C, 4 months), low concentration 1.9–3.2 ng/ml (0.01 µM)
[12] = Long-term (−70°C, 4 months), medium concentration 95–160 ng/ml (0.5 µM)

COC(=O)[C@H]1[C@@H](O)C[C@@H]2CC[C@H]1N2 [NEME, norecgonine methyl ester]
Stability Bias (%) [1, 4]: −2.2%
Stability Bias (%) [1, 5]: −14.3%
Stability Bias (%) [1, 6]: −1.5%
Stability Bias (%) [1, 7]: 0.1%
Stability Bias (%) [1, 8]: −12.8%
Stability Bias (%) [1, 9]: −5.4%
Stability Bias (%) [1, 10]: −8.7%
Stability Bias (%) [1, 11]: −13.0%
Stability Bias (%) [1, 12]: −1.7%

CCOC(=O)[C@@H]1C2CCC(C[C@@H]1OC(=O)c1ccccc1)N2C (stereo partly drawn) [Cocaethylene, cocaethylene]
Stability Bias (%) [1, 4]: 0.2%
Stability Bias (%) [1, 5]: 1.7%
Stability Bias (%) [1, 6]: −2.1%
Stability Bias (%) [1, 7]: −4.1%
Stability Bias (%) [1, 8]: 0.7%
Stability Bias (%) [1, 9]: −3.7%
Stability Bias (%) [1, 10]: −0.6%
Stability Bias (%) [1, 11]: 3.7%
Stability Bias (%) [1, 12]: −1.8%

CCOC(=O)[C@H]1[C@@H](OC(=O)c2ccccc2)C[C@@H]2CC[C@H]1N2 [Norcocaethylene, norcocaethylene]
Stability Bias (%) [1, 4]: −2.2%
Stability Bias (%) [1, 5]: −0.2%
Stability Bias (%) [1, 6]: −0.9%
Stability Bias (%) [1, 7]: −6.4%
Stability Bias (%) [1, 8]: 0.1%
Stability Bias (%) [1, 9]: −4.4%
Stability Bias (%) [1, 10]: 2.8%
Stability Bias (%) [1, 11]: −1.0%
Stability Bias (%) [1, 12]: −1.3%

COC(=O)[C@H]1[C@@H](OC(=O)c2ccccc2)C[C@@H]2CC[C@H]1N2C [Cocaine]
fraction of cocaine hydrolyzed to ecgonine methyl ester (EME) [2]: approximately 40%
Stability Bias (%) [1, 4]: −6.7%
Stability Bias (%) [1, 5]: 2.3%
Stability Bias (%) [1, 6]: 0.3%
Stability Bias (%) [1, 7]: −4.7%
Stability Bias (%) [1, 8]: 2.8%
Stability Bias (%) [1, 9]: −0.7%
Stability Bias (%) [1, 10]: −3.1%
Stability Bias (%) [1, 11]: −0.4%
Stability Bias (%) [1, 12]: 3.1%
highest blood concentration [3]: ~ 2400 ng/ml
time of highest blood concentration after the injection of cocaine [3]: 20 min
fraction of cocaine converted to cocaethylene through transesterification (CE-1; intravenous cocaine): ~ 24%
fraction of cocaine converted to cocaethylene through transesterification (CE-1; oral cocaine): ~ 34%
fraction of cocaine converted to cocaethylene through transesterification (CE-1; smoked cocaine): ~ 18%

COC(=O)[C@H]1[C@@H](OC(=O)c2ccccc2)C[C@@H]2CC[C@H]1N2 [Norcocaine, norcocaine]
Stability Bias (%) [1, 4]: 0.6%
Stability Bias (%) [1, 5]: −1.1%
Stability Bias (%) [1, 6]: 3.5%
Stability Bias (%) [1, 7]: −1.2%
Stability Bias (%) [1, 8]: −1.0%
Stability Bias (%) [1, 9]: −0.2%
Stability Bias (%) [1, 10]: −1.4%
Stability Bias (%) [1, 11]: −2.9%
Stability Bias (%) [1, 12]: 2.2%

CCOC(=O)[C@H]1[C@@H](O)C[C@@H]2CC[C@H]1N2 [NEEE, norecgonine ethyl ester]
Stability Bias (%) [1, 4]: 3.7%
Stability Bias (%) [1, 5]: 1.4%
Stability Bias (%) [1, 6]: 2.4%
Stability Bias (%) [1, 7]: 6.5%
Stability Bias (%) [1, 8]: 1.2%
Stability Bias (%) [1, 9]: 3.3%
Stability Bias (%) [1, 10]: −11.9%
Stability Bias (%) [1, 11]: −1.3%
Stability Bias (%) [1, 12]: −0.2%

COC(=O)[C@@H]1[C@H]2CC[C@@H](C[C@@H]1O)N2C [EME, ecgonine methyl ester]
Stability Bias (%) [1, 4]: 0.3%
Stability Bias (%) [1, 5]: −9.6%
Stability Bias (%) [1, 6]: 5.9%
Stability Bias (%) [1, 7]: 4.0%
Stability Bias (%) [1, 8]: 2.1%
Stability Bias (%) [1, 9]: 4.2%
Stability Bias (%) [1, 10]: 3.5%
Stability Bias (%) [1, 11]: −3.1%
Stability Bias (%) [1, 12]: 6.3%

CN1[C@H]2CC[C@@H]1[C@@H](C(=O)O)[C@@H](OC(=O)c1ccccc1)C2 [BE, benzoylecgonine]
Stability Bias (%) [1, 4]: 1.7%
Stability Bias (%) [1, 5]: −0.5%
Stability Bias (%) [1, 6]: 0.7%
Stability Bias (%) [1, 7]: 3.4%
Stability Bias (%) [1, 8]: −0.9%
Stability Bias (%) [1, 9]: 5.5%
Stability Bias (%) [1, 10]: 3.8%
Stability Bias (%) [1, 11]: −1.4%
Stability Bias (%) [1, 12]: 2.2%

CCOC(=O)[C@@H]1[C@H]2CC[C@@H](C[C@@H]1O)N2C [EEE, ecgonine ethyl ester]
Stability Bias (%) [1, 4]: 6.8%
Stability Bias (%) [1, 5]: 1.2%
Stability Bias (%) [1, 6]: −4.4%
Stability Bias (%) [1, 7]: 9.4%
Stability Bias (%) [1, 8]: −3.2%
Stability Bias (%) [1, 9]: −9.3%
Stability Bias (%) [1, 10]: −5.2%
Stability Bias (%) [1, 11]: −2.2%
Stability Bias (%) [1, 12]: −5.2%
